Assay results taken from ChEMBL document CHEMBL1156451 (J Biol Chem, 2007).
Converted amounts (≈) assume the structure as drawn. The source made the active and inactive calls. The calls are words filed in the database; no cut-off is given here. Where a SMILES comes first, the peptide text is derived from it.

Key:
HeLa = test: Cytotoxicity against human HeLa cells at 100 ug/ml after 24 hrs by MTT assay relative to control; format: functional
Escherichia coli [1] = test: Antibacterial activity against Escherichia coli ATCC 25922 after 24 hrs in Mueller-Hinton broth medium; format: functional
Escherichia coli [2] = test: Antibacterial activity against Escherichia coli K12 ATCC 23716 in 10% Luria-Bertani medium/90% Hepes buffer at pH 7.0; format: functional
Brucella abortus [3] = test: Antibacterial activity against Brucella abortus 9.49 (per-) after 48 hrs in Mueller-Hinton broth medium; format: functional
[4] = test system: Bordetella bronchiseptica; test: Antibacterial activity against Bordetella bronchiseptica CUN 11844-99 after 24 hrs in Mueller-Hinton broth medium; format: functional
Pseudomonas aeruginosa = test: Antibacterial activity against Pseudomonas aeruginosa CUN 4158-02 after 24 hrs in Mueller-Hinton broth medium; format: functional
Brucella abortus [5] = test: Antibacterial activity against Brucella abortus 9.19 (per-) after 24 hrs in Mueller-Hinton broth medium; format: functional
Staphylococcus aureus = test: Antibacterial activity against methicillin-resistant Staphylococcus aureus ATCC 43300 after 24 hrs in Mueller-Hinton broth medium; format: functional
Acinetobacter baumannii = test: Antibacterial activity against Acinetobacter baumannii ATCC 19606 after 24 hrs in Mueller-Hinton broth medium; format: functional
[6] = Toxicity in human erythrocytes assessed as hemolysis at 100 ug/ml; format: cell-based, Erythrocyte; conditions: read-out: Activity
Escherichia coli [7] = test: Antibacterial activity against Escherichia coli K12 ATCC 23716 after 24 hrs in Mueller-Hinton broth medium; format: functional

Molecule	Activity (HeLa)	MBC (Escherichia coli [1]; ATCC 25922, 24 h) [µg/mL]	MIC (Escherichia coli [1]; ATCC 25922, 24 h) [µg/mL]	MBC (Escherichia coli [2]) [µg/mL]	MIC (Escherichia coli [2]) [µg/mL]	MIC (Brucella abortus [3]) [µg/mL]	MBC [4] [µg/mL]	MIC [4] [µg/mL]	MBC (Pseudomonas aeruginosa) [µg/mL]	MIC (Pseudomonas aeruginosa) [µg/mL]	MBC (Brucella abortus [5]) [µg/mL]	MBC (Staphylococcus aureus; ATCC 43300, 24 h) [µg/mL]	MIC (Staphylococcus aureus; ATCC 43300, 24 h) [µg/mL]	MBC (Acinetobacter baumannii; ATCC 19606, 24 h) [µg/mL]	MIC (Acinetobacter baumannii; ATCC 19606, 24 h) [µg/mL]	hemolysis at 100 ug/ml [6] [%]	MBC (Escherichia coli [7]; K12, 24 h) [µg/mL]	MIC (Escherichia coli [7]; K12, 24 h) [µg/mL]	other results
CC[C@H](C)[C@H](NC(=O)[C@H](CCCCN)NC(=O)[C@H](CCCCN)NC(=O)[C@H](CO)NC(=O)[C@@H](NC(=O)CNC(=O)[C@H](CCCNC(=N)N)NC(=O)[C@H](CC(C)C)NC(=O)[C@@H](NC(=O)[C@@H](N)CCCCN)[C@@H](C)CC)C(C)C)C(=O)N[C@@H](CCSC)C(=O)N[C@@H](CCCNC(=N)N)C(=O)N[C@H](C(=O)N[C@@H](Cc1ccccc1)C(=O)N[C@@H](CC(C)C)C(=O)N[C@@H](CCCNC(=N)N)C(=O)N[C@@H](CCCNC(=N)N)C(N)=O)[C@@H](C)O (H-KILRGVSKKIMRTFLRR-NH2)	inactive	32 (≈ 15.2 µM)	32 (≈ 15.2 µM)	8 (≈ 3.81 µM)	4 (≈ 1.9 µM)	16 (≈ 7.61 µM)	8 (≈ 3.81 µM)	8 (≈ 3.81 µM)	128 (≈ 60.9 µM)	128 (≈ 60.9 µM)	64 (≈ 30.5 µM)	128 (≈ 60.9 µM)	128 (≈ 60.9 µM)	16 (≈ 7.61 µM)	8 (≈ 3.81 µM)	< 5	16 (≈ 7.61 µM)	8 (≈ 3.81 µM)	
CC[C@H](C)[C@H](NC(=O)[C@H](CCCCN)NC(=O)[C@H](CCCCN)NC(=O)[C@H](CO)NC(=O)[C@@H](NC(=O)CNC(=O)[C@H](CCCNC(=N)N)NC(=O)[C@H](CC(C)C)NC(=O)[C@@H](NC(=O)[C@@H](N)CCCCN)[C@@H](C)CC)C(C)C)C(=O)N[C@@H](CCSC)C(=O)N[C@@H](CCCNC(=N)N)C(=O)N[C@@H](CCCNC(=N)N)C(=O)N[C@H](C(=O)N[C@@H](CO)C(=O)N[C@@H](CCCCN)C(=O)N[C@@H](CC(=O)O)C(=O)N[C@H](C(=O)N[C@@H](CC(C)C)C(=O)N[C@H](C(=O)NCC(=O)N[C@@H](CCCCN)C(=O)N[C@@H](CCCCN)C(N)=O)[C@@H](C)O)[C@@H](C)CC)[C@@H](C)CC (H-KILRGVSKKIMRRISKDILTGKK-NH2)	inactive	64 (≈ 24 µM)	16 (≈ 6 µM)	25 (≈ 9.37 µM)	12.5 (≈ 4.68 µM)	4 (≈ 1.5 µM)	1 (≈ 0.375 µM)	1 (≈ 0.375 µM)	16 (≈ 6 µM)	16 (≈ 6 µM)	> 128	> 256	> 256	8 (≈ 3 µM)	8 (≈ 3 µM)	< 5	16 (≈ 6 µM)	16 (≈ 6 µM)	
POLYMYXIN B	inactive			3.2	2.4	0.25	0.5	0.5	0.25	0.25	0.5								MBC (Escherichia coli [1]): 0.5 µg/mL; MIC (Escherichia coli [1]): 0.5 µg/mL; MIC (Staphylococcus aureus): 32 µg/mL; MBC (Acinetobacter baumannii): 0.5 µg/mL; MIC (Acinetobacter baumannii): 0.5 µg/mL; MBC (Escherichia coli [7]): 0.125 µg/mL; MIC (Escherichia coli [7]): 0.125 µg/mL
CC[C@H](C)[C@H](NC(=O)[C@H](CCCCN)NC(=O)[C@@H](N)CCCCN)C(=O)N[C@@H](CCSC)C(=O)N[C@@H](CCCNC(=N)N)C(=O)N[C@H](C(=O)N[C@@H](Cc1ccccc1)C(=O)N[C@@H](CC(C)C)C(=O)N[C@@H](CCCNC(=N)N)C(=O)N[C@@H](CCCNC(=N)N)C(N)=O)[C@@H](C)O (H-KKIMRTFLRR-NH2)	inactive	> 256	256 (≈ 190 µM)	50 (≈ 37.1 µM)	25 (≈ 18.5 µM)	128 (≈ 95 µM)	> 256	> 256	> 256	> 256	< 256	> 256	256 (≈ 190 µM)	> 128	> 128	< 5	256 (≈ 190 µM)	256 (≈ 190 µM)	
CC[C@H](C)[C@H](NC(=O)[C@H](CCCNC(=N)N)NC(=O)[C@H](CCCNC(=N)N)NC(=O)[C@H](CC(C)C)NC(=O)[C@H](Cc1ccccc1)NC(=O)[C@@H](NC(=O)[C@H](CCCNC(=N)N)NC(=O)[C@H](CCSC)NC(=O)[C@@H](NC(=O)[C@H](CCCCN)NC(=O)[C@@H](N)CCCCN)[C@@H](C)CC)[C@@H](C)O)C(=O)N[C@@H](CO)C(=O)N[C@@H](CCCCN)C(=O)N[C@@H](CC(=O)O)C(=O)N[C@H](C(=O)N[C@@H](CC(C)C)C(=O)N[C@H](C(=O)NCC(=O)N[C@@H](CCCCN)C(=O)N[C@@H](CCCCN)C(N)=O)[C@@H](C)O)[C@@H](C)CC (H-KKIMRTFLRRISKDILTGKK-NH2)	inactive	64 (≈ 26.3 µM)	16 (≈ 6.58 µM)	32 (≈ 13.2 µM)	32 (≈ 13.2 µM)	16 (≈ 6.58 µM)	8 (≈ 3.29 µM)	4 (≈ 1.64 µM)	128 (≈ 52.6 µM)	128 (≈ 52.6 µM)	> 256	> 256	> 256	64 (≈ 26.3 µM)	8 (≈ 3.29 µM)	< 5	32 (≈ 13.2 µM)	32 (≈ 13.2 µM)	
CC[C@H](C)[C@H](NC(=O)[C@H](CCCNC(=N)N)NC(=O)[C@H](CCCCN)NC(=O)[C@H](CO)NC(=O)[C@@H](NC(=O)CNC(=O)[C@H](CC(C)C)NC(=O)[C@@H](NC(=O)[C@@H](N)CCCCN)[C@@H](C)CC)C(C)C)C(=O)N[C@@H](CC(C)C)C(=O)N[C@H](C(=O)NCC(=O)N[C@@H](CCCCN)C(=O)N[C@@H](CCCCN)C(N)=O)[C@@H](C)O (H-KILGVSKRILTGKK-NH2)	inactive	> 256	> 256	> 100	50 (≈ 32.5 µM)	> 128	> 256	256 (≈ 166 µM)	> 256	> 256	> 12.8	> 256	> 256	> 256	> 256	< 5	> 256	256 (≈ 166 µM)	
CC[C@H](C)[C@H](NC(=O)[C@H](CCCNC(=N)N)NC(=O)[C@H](CCCCN)NC(=O)[C@H](CO)NC(=O)[C@@H](NC(=O)[C@@H](N)CCCCN)[C@@H](C)CC)C(=O)N[C@@H](CC(C)C)C(=O)N[C@H](C(=O)NCC(=O)N[C@@H](CCCCN)C(=O)N[C@@H](CCCCN)C(=O)O)[C@@H](C)O (H-KISKRILTGKK-OH)	inactive	> 256	> 256	> 200	200 (≈ 157 µM)	> 256	> 256	> 256	> 256	> 256	> 256	> 256	> 256	> 256	> 256	< 5	> 256	> 256	
CC[C@H](C)[C@H](NC(=O)[C@H](CCCNC(=N)N)NC(=O)[C@H](CCCNC(=N)N)NC(=O)[C@H](CC(C)C)NC(=O)[C@H](Cc1ccccc1)NC(=O)[C@@H](NC(=O)[C@H](CCCNC(=N)N)NC(=O)[C@H](CCSC)NC(=O)[C@@H](NC(=O)[C@H](CCCCN)NC(=O)[C@@H](N)CCCCN)[C@@H](C)CC)[C@@H](C)O)C(=O)N[C@@H](CO)C(=O)N[C@@H](CCCCN)C(=O)N[C@@H](CCCCN)C(=O)N[C@H](C(=O)N[C@@H](CC(C)C)C(=O)N[C@H](C(=O)NCC(=O)N[C@@H](CCCCN)C(=O)N[C@@H](CCCCN)C(N)=O)[C@@H](C)O)[C@@H](C)CC (H-KKIMRTFLRRISKKILTGKK-NH2)	inactive	64 (≈ 26.2 µM)	32 (≈ 13.1 µM)	32 (≈ 13.1 µM)	16 (≈ 6.54 µM)	4 (≈ 1.64 µM)	16 (≈ 6.54 µM)	2 (≈ 0.818 µM)	128 (≈ 52.3 µM)	32 (≈ 13.1 µM)	32 (≈ 13.1 µM)	256 (≈ 105 µM)	128 (≈ 52.3 µM)	8 (≈ 3.27 µM)	8 (≈ 3.27 µM)	< 5	32 (≈ 13.1 µM)	16 (≈ 6.54 µM)	
CC[C@H](C)[C@H](NC(=O)[C@H](CCCNC(=N)N)NC(=O)[C@H](CCCNC(=N)N)NC(=O)[C@H](CC(C)C)NC(=O)[C@H](Cc1ccccc1)NC(=O)[C@@H](NC(=O)[C@H](CCCNC(=N)N)NC(=O)[C@H](CCSC)NC(=O)[C@@H](NC(=O)[C@H](CCCCN)NC(=O)[C@H](CCCCN)NC(=O)[C@H](CO)NC(=O)[C@@H](NC(=O)[C@@H](N)CCCCN)[C@@H](C)CC)[C@@H](C)CC)[C@@H](C)O)C(=O)N[C@@H](CO)C(=O)N[C@@H](CCCCN)C(=O)N[C@@H](CC(=O)O)C(=O)N[C@H](C(=O)N[C@@H](CC(C)C)C(=O)N[C@H](C(=O)NCC(=O)N[C@@H](CCCCN)C(=O)N[C@@H](CCCCN)C(N)=O)[C@@H](C)O)[C@@H](C)CC (H-KISKKIMRTFLRRISKDILTGKK-NH2)	inactive	4 (≈ 1.45 µM)	4 (≈ 1.45 µM)	12.5 (≈ 4.53 µM)	12.5 (≈ 4.53 µM)	2 (≈ 0.725 µM)	1 (≈ 0.362 µM)	1 (≈ 0.362 µM)	4 (≈ 1.45 µM)	4 (≈ 1.45 µM)	64 (≈ 23.2 µM)	> 256	> 256	4 (≈ 1.45 µM)	4 (≈ 1.45 µM)	< 5	4 (≈ 1.45 µM)	4 (≈ 1.45 µM)	
CC[C@H](C)[C@H](NC(=O)[C@H](CCCNC(=N)N)NC(=O)[C@H](CCCCN)NC(=O)[C@H](CO)NC(=O)[C@@H](NC(=O)CNC(=O)[C@H](CCCNC(=N)N)NC(=O)[C@H](CC(C)C)NC(=O)[C@@H](NC(=O)[C@@H](N)CCCCN)[C@@H](C)CC)C(C)C)C(=O)N[C@@H](CC(C)C)C(=O)N[C@H](C(=O)NCC(=O)N[C@@H](CCCCN)C(=O)N[C@@H](CCCCN)C(N)=O)[C@@H](C)O (H-KILRGVSKRILTGKK-NH2)	inactive	> 256	> 256	100 (≈ 59 µM)	50 (≈ 29.5 µM)		> 64	> 64	128 (≈ 75.5 µM)	128 (≈ 75.5 µM)		> 256	> 256	> 128	> 128	< 5	> 128	> 128	
